In patent publication US9493455B2, “Azaindole derivatives as inhibitors of protein kinases” (ORIBASE PHARMA, priority 2012, dated 2016):

Columns and labels:
BRAF = target: T1, BRAF (Homo sapiens, UniProt P15056); experiment: In vitro kinase assay (Z′-LYTE); format: biochemical; settings: compound 100 nM; ATP 100 μM; read-out: % of inhibition of the kinase compared to the control
T1 construct: purchased Invitrogen
Description: (§1) The inhibitory activity of the compounds on several kinases including BRAF, EGFR (ErbB1), EGFR (ErbB1) T790M L858R, FGFR2, KDR (VEGFR2), PDGFRA (PDGFR alpha), SRC and other was evaluated by Invitrogen using the Z′-LYTE® technology. Briefly, the Z′-LYTE® biochemical assay employs a fluorescence-based, coupled-enzyme format and is based on the differential sensitivity of phosphorylated and non-phosphorylated peptides to proteolytic cleavage. The peptide substrate is labeled with two fluorophores—one at each end—that make up a FRET pair. A ratiometric method, which calculates the ratio (the Emission Ratio) of donor emission to acceptor emission after excitation of the donor fluorophore at 400 nm, is used to quantitate reaction progress.
(§2) The compounds are screened in 1% DMSO (final) in the well. For 10 point titrations, 3-fold serial dilutions are conducted from the starting concentration. All Peptide/Kinase Mixtures are diluted to a 2× working concentration in the appropriate Kinase Buffer. All ATP Solutions are diluted to a 4× working concentration in Kinase Buffer (50 mM HEPES pH 7.5, 0.01% BRIJ-35, 10 mM MgCl2, 1 mM EGTA). ATP Km apparent is previously determined using a Z′-LYTE® assay.
(§3) Each compound was incubated at a concentration of 100 nM (excepted to test the activity against ABL and ABL T315I for which the compounds were incubated at a concentration of 10 μM) and the tables B1 to B12 summarize the results obtained showing the inhibitory power of a compound. The inhibitory activity of OR0512 was also investigated using the same assays and the kinases for which activity was inhibited at more than 50% at the concentration of 100 nM of OR0512 are listed in the table B13.

EGFR (ErbB1) = target: T2, EGFR (ErbB1) (Homo sapiens, UniProt P00533); experiment: In vitro kinase assay (Z′-LYTE); format: biochemical; settings: read-out: % of inhibition of the kinase compared to the control
T2 construct: purchased Invitrogen
Description: as §1, §2, §3

KDR (VEGFR2) = target: T3, KDR (VEGFR2) (Homo sapiens, UniProt P35968); experiment: In vitro kinase assay (Z′-LYTE); format: biochemical; settings: read-out: % of inhibition of the kinase compared to the control
T3 construct: purchased Invitrogen
Description: as §1, §2, §3

FGFR2 = target: T4, FGFR2 (Homo sapiens, UniProt P21802); experiment: In vitro kinase assay (Z′-LYTE); format: biochemical; settings: read-out: % of inhibition of the kinase compared to the control
T4 construct: purchased Invitrogen
Description: as §1, §2, §3

PDGFRA (PDGFR alpha) = target: T5, PDGFRA (PDGFR alpha) (Homo sapiens, UniProt P16234); experiment: In vitro kinase assay (Z′-LYTE); format: biochemical; settings: read-out: % of inhibition of the kinase compared to the control
T5 construct: purchased Invitrogen
Description: as §1, §2, §3

SRC = target: T6, SRC (Homo sapiens, UniProt P12931); experiment: In vitro kinase assay (Z′-LYTE); format: biochemical; settings: read-out: % of inhibition of the kinase compared to the control
T6 construct: purchased Invitrogen
Description: as §1, §2, §3

EGFR (ErbB1) T790M L858R = target: T7, EGFR (ErbB1) T790M L858R (Homo sapiens, UniProt P00533, L858R/T790M); experiment: In vitro kinase assay (Z′-LYTE); format: biochemical; settings: read-out: % of inhibition of the kinase compared to the control
T7 construct: purchased Invitrogen
Description: as §1, §2, §3

VEGFR1 = target: T8, VEGFR1 (Homo sapiens, UniProt P17948); experiment: In vitro kinase assay (Z′-LYTE); format: biochemical; settings: read-out: % of inhibition of the kinase compared to the control
T8 construct: purchased Invitrogen
Description: as §1, §2, §3

ABL = target: T9, ABL (Homo sapiens, UniProt P00519); experiment: In vitro kinase assay (Z′-LYTE); format: biochemical; settings: read-out: % of inhibition of the kinase compared to the control
T9 construct: purchased Invitrogen
Description: as §1, §2, §3

ABL T315I = target: T10, ABL T315I (Homo sapiens, UniProt P00519, T315I); experiment: In vitro kinase assay (Z′-LYTE); format: biochemical; settings: read-out: % of inhibition of the kinase compared to the control
T10 construct: purchased Invitrogen
Description: as §1, §2, §3

FGFR1 = target: T11, FGFR1 (Homo sapiens, UniProt P11362); experiment: In vitro kinase assay (Z′-LYTE); format: biochemical; settings: read-out: % of inhibition of the kinase compared to the control
T11 construct: purchased Invitrogen
Description: as §1, §2, §3

PDGFRB = target: T12, PDGFRB (Homo sapiens, UniProt P09619); experiment: In vitro kinase assay (Z′-LYTE); format: biochemical; settings: read-out: % of inhibition of the kinase compared to the control
T12 construct: purchased Invitrogen
Description: as §1, §2, §3

BxPC-3 = experiment: In vitro cell proliferation assay (MTT); format: cell-based; settings: Homo sapiens, BXPC-3, 72 h
Description: (§4) Cancer cell lines (5×10^3 cells per well) or HUVEC (1×10^4 cells per well) or HRMEC (1×10^4 cells per well) were distributed in 96-well plates and incubating in duplicate with escalating concentrations (10 nM to 3 μM) of compounds for 72 hr. Cell proliferation was measured using MTT (3 [4,5-dimethylthiazol-2-yl]-2,5-diphenyltetrazolium bromide).

HUVEC = experiment: In vitro cell proliferation assay (MTT); format: cell-based; settings: Homo sapiens, 72 h
Description: as §4

HepG2 = experiment: In vitro cell proliferation assay (MTT); format: cell-based; settings: Homo sapiens, HepG2, 72 h
Description: as §4

T2 sequence (P00533 25-1210): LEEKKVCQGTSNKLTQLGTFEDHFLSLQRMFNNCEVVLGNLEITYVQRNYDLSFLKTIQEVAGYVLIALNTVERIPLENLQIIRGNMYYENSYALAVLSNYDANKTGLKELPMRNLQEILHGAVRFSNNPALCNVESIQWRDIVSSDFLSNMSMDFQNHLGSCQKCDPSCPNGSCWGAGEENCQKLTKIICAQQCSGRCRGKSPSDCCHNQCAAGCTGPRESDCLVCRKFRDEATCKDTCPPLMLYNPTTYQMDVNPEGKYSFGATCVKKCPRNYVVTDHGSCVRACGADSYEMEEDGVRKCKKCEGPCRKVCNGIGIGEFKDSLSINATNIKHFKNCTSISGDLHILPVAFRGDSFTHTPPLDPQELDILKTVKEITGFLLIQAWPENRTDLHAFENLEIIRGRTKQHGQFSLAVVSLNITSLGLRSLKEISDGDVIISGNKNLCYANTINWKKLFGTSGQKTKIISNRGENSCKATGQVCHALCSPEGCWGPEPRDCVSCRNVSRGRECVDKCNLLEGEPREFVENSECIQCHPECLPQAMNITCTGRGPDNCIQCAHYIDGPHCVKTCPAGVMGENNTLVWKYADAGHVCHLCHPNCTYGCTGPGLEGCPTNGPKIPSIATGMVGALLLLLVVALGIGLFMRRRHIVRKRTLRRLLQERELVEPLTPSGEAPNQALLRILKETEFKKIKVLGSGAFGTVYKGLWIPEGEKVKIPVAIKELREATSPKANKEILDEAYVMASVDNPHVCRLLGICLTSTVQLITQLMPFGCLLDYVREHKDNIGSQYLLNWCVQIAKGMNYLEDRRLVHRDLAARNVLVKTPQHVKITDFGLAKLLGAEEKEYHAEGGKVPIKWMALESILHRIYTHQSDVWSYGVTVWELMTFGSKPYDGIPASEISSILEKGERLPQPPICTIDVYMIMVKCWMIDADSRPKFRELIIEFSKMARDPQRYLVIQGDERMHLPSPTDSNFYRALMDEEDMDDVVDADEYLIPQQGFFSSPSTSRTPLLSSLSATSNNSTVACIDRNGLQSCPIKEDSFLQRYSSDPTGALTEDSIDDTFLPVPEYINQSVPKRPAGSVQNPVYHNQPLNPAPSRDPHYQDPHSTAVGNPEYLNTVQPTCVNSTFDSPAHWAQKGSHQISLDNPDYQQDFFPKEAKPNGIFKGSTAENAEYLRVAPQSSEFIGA
T7 sequence (P00533 25-1210 T790M/L858R): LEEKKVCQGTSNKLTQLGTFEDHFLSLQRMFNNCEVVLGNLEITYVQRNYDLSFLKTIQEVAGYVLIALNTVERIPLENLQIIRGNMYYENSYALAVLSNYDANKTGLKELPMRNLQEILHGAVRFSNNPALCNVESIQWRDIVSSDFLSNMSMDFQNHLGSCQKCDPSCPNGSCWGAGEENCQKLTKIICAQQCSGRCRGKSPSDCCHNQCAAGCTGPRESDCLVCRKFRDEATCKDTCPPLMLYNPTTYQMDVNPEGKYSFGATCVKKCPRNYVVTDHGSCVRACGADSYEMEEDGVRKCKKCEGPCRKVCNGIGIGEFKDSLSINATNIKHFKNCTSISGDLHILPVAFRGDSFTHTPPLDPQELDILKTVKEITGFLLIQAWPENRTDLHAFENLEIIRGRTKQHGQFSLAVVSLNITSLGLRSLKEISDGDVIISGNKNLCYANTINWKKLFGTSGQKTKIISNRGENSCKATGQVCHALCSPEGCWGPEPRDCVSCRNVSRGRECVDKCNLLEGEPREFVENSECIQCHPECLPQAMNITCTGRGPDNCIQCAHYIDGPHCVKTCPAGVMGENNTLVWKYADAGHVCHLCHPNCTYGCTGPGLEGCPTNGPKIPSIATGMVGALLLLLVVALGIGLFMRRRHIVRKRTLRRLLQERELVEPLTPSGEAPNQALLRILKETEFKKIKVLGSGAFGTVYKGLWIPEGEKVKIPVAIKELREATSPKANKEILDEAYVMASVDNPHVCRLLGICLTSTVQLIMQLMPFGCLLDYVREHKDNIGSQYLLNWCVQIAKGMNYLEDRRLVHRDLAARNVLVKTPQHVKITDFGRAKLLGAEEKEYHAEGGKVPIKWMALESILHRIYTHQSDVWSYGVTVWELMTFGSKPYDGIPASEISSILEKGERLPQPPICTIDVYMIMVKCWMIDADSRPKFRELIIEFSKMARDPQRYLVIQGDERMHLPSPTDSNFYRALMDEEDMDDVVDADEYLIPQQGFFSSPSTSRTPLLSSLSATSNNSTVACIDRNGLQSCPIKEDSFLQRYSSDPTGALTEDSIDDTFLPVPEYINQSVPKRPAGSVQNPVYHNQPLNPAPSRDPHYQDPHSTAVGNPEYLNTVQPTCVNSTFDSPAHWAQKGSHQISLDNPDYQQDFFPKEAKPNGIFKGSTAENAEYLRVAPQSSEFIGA
T4 sequence (P21802 22-821): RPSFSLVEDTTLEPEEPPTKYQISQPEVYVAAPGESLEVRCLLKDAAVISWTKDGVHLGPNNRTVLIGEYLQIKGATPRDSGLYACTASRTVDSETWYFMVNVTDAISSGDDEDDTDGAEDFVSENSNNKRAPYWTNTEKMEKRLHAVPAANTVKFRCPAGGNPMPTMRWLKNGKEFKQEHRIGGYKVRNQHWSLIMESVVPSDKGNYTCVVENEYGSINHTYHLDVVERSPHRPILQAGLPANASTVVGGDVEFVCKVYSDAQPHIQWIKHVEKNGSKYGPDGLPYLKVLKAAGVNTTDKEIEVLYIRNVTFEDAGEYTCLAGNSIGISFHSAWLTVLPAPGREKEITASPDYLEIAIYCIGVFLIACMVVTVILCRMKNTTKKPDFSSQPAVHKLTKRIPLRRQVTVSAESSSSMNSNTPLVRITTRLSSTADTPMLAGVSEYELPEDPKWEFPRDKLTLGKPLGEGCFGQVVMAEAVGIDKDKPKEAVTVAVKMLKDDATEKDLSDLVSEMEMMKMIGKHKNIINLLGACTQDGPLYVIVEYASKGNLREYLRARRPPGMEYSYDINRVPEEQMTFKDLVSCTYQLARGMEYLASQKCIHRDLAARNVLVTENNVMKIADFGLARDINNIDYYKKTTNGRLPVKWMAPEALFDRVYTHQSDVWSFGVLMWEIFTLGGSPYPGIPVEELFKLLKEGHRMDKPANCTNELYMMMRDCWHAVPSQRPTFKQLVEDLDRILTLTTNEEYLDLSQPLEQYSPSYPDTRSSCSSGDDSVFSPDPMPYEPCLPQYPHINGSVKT
T3 sequence (P35968 20-1356): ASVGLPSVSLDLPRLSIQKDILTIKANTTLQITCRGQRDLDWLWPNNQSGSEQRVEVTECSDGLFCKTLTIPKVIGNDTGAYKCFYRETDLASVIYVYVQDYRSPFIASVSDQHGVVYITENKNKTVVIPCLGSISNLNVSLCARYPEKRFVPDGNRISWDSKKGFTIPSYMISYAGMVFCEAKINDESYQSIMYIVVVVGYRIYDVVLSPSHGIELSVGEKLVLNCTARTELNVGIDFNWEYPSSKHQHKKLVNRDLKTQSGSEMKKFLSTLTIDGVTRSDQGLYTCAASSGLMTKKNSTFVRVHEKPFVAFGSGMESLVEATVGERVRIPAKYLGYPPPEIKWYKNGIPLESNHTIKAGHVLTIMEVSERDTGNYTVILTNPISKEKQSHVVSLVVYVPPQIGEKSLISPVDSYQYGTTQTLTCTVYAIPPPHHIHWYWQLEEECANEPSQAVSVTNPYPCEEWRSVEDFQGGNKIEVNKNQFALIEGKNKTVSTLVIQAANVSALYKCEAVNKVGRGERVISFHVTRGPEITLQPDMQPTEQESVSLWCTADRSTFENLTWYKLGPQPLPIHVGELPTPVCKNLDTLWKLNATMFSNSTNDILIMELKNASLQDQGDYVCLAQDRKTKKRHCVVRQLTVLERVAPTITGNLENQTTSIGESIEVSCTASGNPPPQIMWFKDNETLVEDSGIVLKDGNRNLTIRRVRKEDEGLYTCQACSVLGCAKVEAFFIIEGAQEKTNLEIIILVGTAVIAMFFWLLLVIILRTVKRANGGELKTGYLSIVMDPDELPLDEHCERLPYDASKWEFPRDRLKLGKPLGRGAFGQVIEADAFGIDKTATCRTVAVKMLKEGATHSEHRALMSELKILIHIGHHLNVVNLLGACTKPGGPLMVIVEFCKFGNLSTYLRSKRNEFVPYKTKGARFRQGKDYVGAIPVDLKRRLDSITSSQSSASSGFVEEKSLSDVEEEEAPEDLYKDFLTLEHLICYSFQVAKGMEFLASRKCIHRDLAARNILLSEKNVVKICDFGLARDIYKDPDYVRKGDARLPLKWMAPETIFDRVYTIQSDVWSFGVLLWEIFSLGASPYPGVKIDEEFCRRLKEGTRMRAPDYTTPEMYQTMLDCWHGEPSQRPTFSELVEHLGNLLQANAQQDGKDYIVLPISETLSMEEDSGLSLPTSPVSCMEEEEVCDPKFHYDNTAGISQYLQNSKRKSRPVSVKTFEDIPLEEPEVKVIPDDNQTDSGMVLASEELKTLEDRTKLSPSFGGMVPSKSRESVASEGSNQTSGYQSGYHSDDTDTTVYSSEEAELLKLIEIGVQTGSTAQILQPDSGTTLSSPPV
T6 sequence (P12931 whole entry): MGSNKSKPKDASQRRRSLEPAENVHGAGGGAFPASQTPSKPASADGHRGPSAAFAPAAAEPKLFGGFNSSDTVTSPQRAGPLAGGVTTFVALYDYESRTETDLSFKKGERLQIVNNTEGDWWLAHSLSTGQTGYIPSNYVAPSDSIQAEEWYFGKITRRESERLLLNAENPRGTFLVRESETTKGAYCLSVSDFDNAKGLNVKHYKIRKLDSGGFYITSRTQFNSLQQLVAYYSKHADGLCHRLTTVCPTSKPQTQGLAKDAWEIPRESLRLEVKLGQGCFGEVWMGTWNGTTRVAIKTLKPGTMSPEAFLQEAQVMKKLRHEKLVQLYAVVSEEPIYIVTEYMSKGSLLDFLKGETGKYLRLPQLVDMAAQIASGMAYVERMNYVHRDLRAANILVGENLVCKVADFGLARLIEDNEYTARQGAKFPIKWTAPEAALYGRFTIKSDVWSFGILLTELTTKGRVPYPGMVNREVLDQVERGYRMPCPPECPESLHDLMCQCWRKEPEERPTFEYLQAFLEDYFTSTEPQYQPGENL

| Structure (SMILES) | inhibition at 0.1 µM (BRAF) [%] | inhibition at 0.1 µM (EGFR (ErbB1)) [%] | inhibition at 0.1 µM (KDR (VEGFR2)) [%] | inhibition at 0.1 µM (FGFR2) [%] | inhibition at 0.1 µM (PDGFRA (PDGFR alpha)) [%] | inhibition at 0.1 µM (SRC) [%] | inhibition at 0.1 µM (EGFR (ErbB1) T790M L858R) [%] | inhibition at 0.1 µM (VEGFR1) [%] | inhibition at 10 µM (ABL) [%] | inhibition at 10 µM (ABL T315I) [%] | inhibition at 0.1 µM (FGFR1) [%] | inhibition at 0.1 µM (PDGFRB) [%] | EC50 (BxPC-3) [nM] | EC50 (HUVEC) [nM] | EC50 (HepG2) [nM] |
| --- | --- | --- | --- | --- | --- | --- | --- | --- | --- | --- | --- | --- | --- | --- | --- |
| COC(=O)c1cc2cc(NCc3cc(NC(=O)c4cc(N5CCN(C)CC5)cc(C(F)(F)F)c4)ccc3C)cnc2[nH]1 [OR0698] | < 50 | ≥ 50 | < 50 | < 50 | < 50 | ≥ 50 | < 50 |  |  |  |  |  |  |  |  |
| COC(=O)c1cc2cc(NCc3cc(NS(=O)(=O)c4ccc(C)cc4)ccc3C)cnc2[nH]1 [OR0595] | < 50 | < 50 | < 50 | < 50 | < 50 | < 50 | < 50 | < 50 | ≥ 50 | < 50 | < 50 | < 50 | ≥ 1000 |  |  |
| COC(=O)c1cc2cc(NCc3cccc(C(=O)NCc4cccc(C(F)(F)F)c4)c3)cnc2[nH]1 [OR1004] | < 50 | < 50 | < 50 | < 50 | < 50 |  |  |  |  |  |  |  |  | ≥ 1000 | ≥ 1000 |
| COC(=O)c1cc2cc(NCc3cc(NC(=O)c4ccc(CN5CCN(C)CC5)c(F)c4)ccc3C)cnc2[nH]1 [OR0864] | ≥ 50 | ≥ 50 | ≥ 50 | ≥ 50 |  |  |  |  |  |  |  |  |  |  | ≥ 1000 |
| COC(=O)c1cc2cc(NC(=O)c3cccc(CNC(=O)c4ccc(CN5CCN(C)CC5)c(C(F)(F)F)c4)c3)cnc2[nH]1 [OR0983] | < 50 | < 50 | < 50 | < 50 | < 50 |  |  |  |  |  |  |  |  | ≥ 1000 | ≥ 1000 |
| COC(=O)c1cc2cc(NCc3cccc(C(=O)Nc4cccnc4)c3)cnc2[nH]1 [OR0916] | < 50 | < 50 | < 50 | < 50 | < 50 |  |  |  |  |  |  |  |  | ≥ 1000 | ≥ 1000 |
| COC(=O)c1cc2cc(NCc3cc(NC(=O)c4ccc(CN5CCC(N(C)C)C5)c(F)c4)ccc3C)cnc2[nH]1 (centres unmarked) [OR0974] | ≥ 50 | ≥ 50 | ≥ 50 | < 50 |  |  |  |  |  |  |  |  |  | ≥ 1000 | ≥ 1000 |
| COC(=O)c1cc2cc(NCc3cc(NC(=O)c4ccc(CN5CCN(C)CC5)c(C(F)(F)F)c4)ccc3Cl)cnc2[nH]1 [OR0621] | < 50 | < 50 | < 50 | < 50 | < 50 | < 50 | < 50 | < 50 | ≥ 50 | ≥ 50 | < 50 | < 50 |  |  |  |
| COC(=O)c1cc2cc(NCc3cc(NC(=O)Nc4cccnc4)ccc3C)cnc2[nH]1 [OR0896] | ≥ 50 | ≥ 50 | < 50 | < 50 |  |  |  |  |  |  |  |  |  | 100 to 1000 | ≥ 1000 |
| COC(=O)c1cc2cc(NCc3cccc(C(=O)Nc4ccc(CN5CCN(C)CC5)c(C(F)(F)F)c4)c3)cnc2[nH]1 [OR0635] | < 50 | < 50 | ≥ 50 | ≥ 50 |  |  |  |  |  |  |  |  |  | 100 to 1000 | ≥ 1000 |
| COC(=O)c1cc2cc(NCc3cc(NC(=O)c4cc[nH]c4)ccc3C)cnc2[nH]1 [OR0975] | ≥ 50 | < 50 | < 50 | < 50 | ≥ 50 |  |  |  |  |  |  |  |  | ≥ 1000 | ≥ 1000 |
